Results from article PMC4582037, “Binding interaction of a novel fluorophore with serum albumins: steady state fluorescence perturbation and molecular modeling analysis” (SpringerPlus, 2015).

How the values were obtained:
[1] = target: T1, bovine serum albumin (BSA) (Bos taurus, UniProt P02769); test: fluorescence anisotropy titration of compound […]) with protein, Langmuir isotherm fit; format: binding
T1 construct: gene ALB

[2] = target: T2, human serum albumin (HSA) (Homo sapiens, UniProt P02768); test: as above; format: binding
T2 construct: gene ALB
T2 sequence (P02768 25-609): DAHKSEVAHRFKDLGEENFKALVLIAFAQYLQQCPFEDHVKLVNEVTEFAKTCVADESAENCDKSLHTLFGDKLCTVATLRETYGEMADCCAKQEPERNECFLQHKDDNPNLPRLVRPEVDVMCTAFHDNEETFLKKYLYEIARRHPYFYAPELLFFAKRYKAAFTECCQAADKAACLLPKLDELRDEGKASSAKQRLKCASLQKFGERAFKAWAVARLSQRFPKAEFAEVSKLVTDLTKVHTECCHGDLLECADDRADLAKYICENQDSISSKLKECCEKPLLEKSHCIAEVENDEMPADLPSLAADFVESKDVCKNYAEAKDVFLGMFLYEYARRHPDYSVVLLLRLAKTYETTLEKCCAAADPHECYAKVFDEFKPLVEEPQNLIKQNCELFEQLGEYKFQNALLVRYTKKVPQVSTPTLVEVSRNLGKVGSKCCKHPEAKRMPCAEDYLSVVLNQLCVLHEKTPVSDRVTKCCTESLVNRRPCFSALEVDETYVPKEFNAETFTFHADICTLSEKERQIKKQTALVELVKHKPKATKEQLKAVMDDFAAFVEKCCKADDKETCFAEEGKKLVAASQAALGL

T1 sequence (P02769 25-607): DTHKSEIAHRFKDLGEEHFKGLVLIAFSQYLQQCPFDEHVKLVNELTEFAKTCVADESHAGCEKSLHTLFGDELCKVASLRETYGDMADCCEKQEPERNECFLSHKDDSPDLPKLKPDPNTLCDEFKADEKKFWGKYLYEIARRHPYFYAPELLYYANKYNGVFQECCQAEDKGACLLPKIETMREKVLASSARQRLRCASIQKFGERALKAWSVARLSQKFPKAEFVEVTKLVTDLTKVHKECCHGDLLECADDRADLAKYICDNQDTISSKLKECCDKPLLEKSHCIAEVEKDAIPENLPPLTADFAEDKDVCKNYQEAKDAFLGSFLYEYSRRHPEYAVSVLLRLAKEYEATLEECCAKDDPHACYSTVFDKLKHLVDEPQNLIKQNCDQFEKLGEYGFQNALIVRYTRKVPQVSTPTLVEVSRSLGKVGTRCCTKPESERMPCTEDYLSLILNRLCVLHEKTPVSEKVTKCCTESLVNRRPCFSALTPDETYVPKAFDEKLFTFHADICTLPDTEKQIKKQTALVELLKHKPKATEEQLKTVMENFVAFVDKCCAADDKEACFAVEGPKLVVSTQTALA

COC(=O)CCNC(=O)c1ccc2cc(N(CC(=O)OC(C)(C)C)c3ccc(OC)cc3)ccc2c1 [compound 5, methyl 3-[(6-{[2-(tert-butoxy)-2-oxoethyl] (4-methoxyphenyl)amino}naphthalen-2-yl)formamido]propanoate]
Kd [1]: 1930 nM | Kd [2]: 2050 nM
